Test results reported in BindingDB's records for doi:10.1021/jm1009814 (Paris-Sud University, 2010).

Key:
[1] = biological target: T1, Fructose-bisphosphate aldolase A (Oryctolagus cuniculus, UniProt P00883); assay: Inhibition of rabbit muscle […] class 1 Fba expressed in Escherichia coli
T1 sequence (P00883 whole entry): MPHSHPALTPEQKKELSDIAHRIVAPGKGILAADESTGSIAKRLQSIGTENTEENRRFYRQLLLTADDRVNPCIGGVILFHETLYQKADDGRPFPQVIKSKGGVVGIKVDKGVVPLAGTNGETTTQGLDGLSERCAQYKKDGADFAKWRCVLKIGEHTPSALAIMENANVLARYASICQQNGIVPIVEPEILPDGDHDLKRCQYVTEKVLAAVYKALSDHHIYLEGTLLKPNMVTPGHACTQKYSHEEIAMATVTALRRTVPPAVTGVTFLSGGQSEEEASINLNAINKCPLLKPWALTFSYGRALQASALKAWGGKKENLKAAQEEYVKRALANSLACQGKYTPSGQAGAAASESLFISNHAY

[2] = biological target: T2, Fructose-bisphosphate aldolase (Helicobacter pylori (strain ATCC 700392 / 26695), UniProt P56109); assay: Inhibition of Helicobacter pylori recombinant zinc dependent class 2 Fba expressed in Escherichia coli JM109
T2 sequence (P56109 whole entry): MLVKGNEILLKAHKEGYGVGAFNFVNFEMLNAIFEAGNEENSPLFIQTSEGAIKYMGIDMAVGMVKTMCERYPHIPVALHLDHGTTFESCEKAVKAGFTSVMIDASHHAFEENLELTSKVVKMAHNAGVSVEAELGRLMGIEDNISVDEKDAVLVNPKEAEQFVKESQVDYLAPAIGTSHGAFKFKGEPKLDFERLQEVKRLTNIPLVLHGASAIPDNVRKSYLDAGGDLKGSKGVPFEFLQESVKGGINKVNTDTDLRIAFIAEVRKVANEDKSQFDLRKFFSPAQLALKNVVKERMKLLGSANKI

[3] = biological target: T3, Fructose-bisphosphate aldolase (Candida albicans (strain SC5314 / ATCC MYA-2876), UniProt Q9URB4); assay: Inhibition of Candida albicans zinc dependent class 2 Fba
T3 sequence (Q9URB4 whole entry): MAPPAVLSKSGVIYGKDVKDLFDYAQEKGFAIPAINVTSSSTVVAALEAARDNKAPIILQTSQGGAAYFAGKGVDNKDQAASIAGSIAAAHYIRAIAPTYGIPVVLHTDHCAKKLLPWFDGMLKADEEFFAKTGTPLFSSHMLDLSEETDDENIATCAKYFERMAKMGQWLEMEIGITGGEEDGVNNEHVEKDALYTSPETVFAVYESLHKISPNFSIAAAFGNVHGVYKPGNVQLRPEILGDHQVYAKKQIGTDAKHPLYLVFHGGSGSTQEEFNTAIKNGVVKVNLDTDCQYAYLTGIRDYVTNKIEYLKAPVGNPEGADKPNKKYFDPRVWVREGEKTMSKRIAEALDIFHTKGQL

SMILES | Ki [1] | Ki [2] | Ki [3]
O=C([C@H](O)COP(=O)(O)O)[C@H](O)C(O)COP(=O)(O)O (stereo partly drawn) [1,6-di-O-phosphono-D-fructose] | 15 µM | 17 µM | 85 µM
CCCCCC(=O)OCCCCN(O)C(=O)COP(=O)(O)O [4-(N-hydroxy-2-(phosphonooxy)acetamido)butyl hexanoate] | 850 µM |  | 
